IC50 data for 19 compounds are collected here from patent US20060035884A1, “N-cyclic sulfonamido inhibitors of gamma secretase” (Elan Pharmaceuticals, Inc., priority 2004, published 2006).

The structures appear in SMILES notation.

The subject of this assay is gamma secretase cleavage of NotchδE (constitutively active rat Notch1 construct ZEDN1). Nature of the assay: Notch signaling reporter gene assay (4xwtCBF1 Luciferase co-transfected with NotchδE) for selective inhibitors of gamma secretase. The class given is cell-based. Conditions: assay not given, it follows the Notch signaling assay section. The source says: Due to the importance of Notch signaling in cell fate determination, and tissue differentiation during both development and in the adult, inhibition of Notch signaling by gamma secretase inhibitors is postulated to be a limiting factor in their therapeutic utility. […] Lindsell, O. Bogler, D. Hayward and G. Weinmaster (1996). “Notch signaling inhibits muscle cell differentiation through a CBF1-independent pathway.” Development 122(12): 3765-73 in combination with the CBF1 repressible Luciferase reporter gene 4xwtCBF1Luc (Hsieh, J. J., T. Henkel, P. Salmon, E. Robey, M. G. Peterson and S. D. Hayward (1996). “Truncated mammalian Notch1 activates CBF1/RBPJk-repressed genes by a mechanism resembling that of Epstein-Barr virus EBNA2. ” Mol Cell Biol 16(3): 952-9).
When 4xwtCBF1 Luciferase is co-transfected with NotchδE (ZEDN1), gamma-secretase cleavage of NotchδE releases the Notch intracellular domain (NICD), which translocates to the nucleus and de-represses CBF1 mediated transcriptional repression, leading to transcription of the Luciferase reporter gene. Luciferase activity is easily assayed in cell extracts using commercially available kits. The activity of the reporter gene is directly correlated with gamma secretase cleavage of NotchδE, and as such, a reduction in Luciferase activity provides a convenient measure of inhibition of gamma secretase cleavage of NotchδE.
In general, IC50 refers to the point on the concentration scale where inhibition reaches its midpoint. Regarding `CC1(c2ccccc2)CCCN(S(=O)(=O)c2ccc(Cl)cc2)C1` (stereo not shown) [Compound 74, 1-(4-Chloro-benzenesulfonyl)-3-methyl-3-phenyl-piperidine], the IC50 is over 10000 nM.

In the case of `CC1CC(C)CN(S(=O)(=O)c2ccc(Cl)cc2)C1` (stereo not shown) [Compound 51, 1-(4-Chloro-benzenesulfonyl)-3,5-dimethyl-piperidine], the IC50 was 1000 to 10000 nM.

With `O=S(=O)(c1ccc(Cl)cc1)N1CCCN2CCCN=C21` [Compound 138, 1-(4-Chloro-benzenesulfonyl)-1,3,4,6,7,8-hexahydro-2H-pyrimido[1,2-a]pyrimidine], the IC50 was over 10000 nM.

For `CCC1CCCCN1S(=O)(=O)c1ccc(Cl)cc1` (stereo not shown) [Compound 46, 1-(4-Chloro-benzenesulfonyl)-2-ethyl-piperidine], the IC50 fell in the range of 100 to 1000 nM.

Take `CC1CCc2cc(F)ccc2N1S(=O)(=O)c1ccc(Cl)cc1` (stereo not shown) [Compound 13, 1-(4-Chloro-benzenesulfonyl)-6-fluoro-2-methyl-1,2,3,4-tetrahydro-quinoline]: the IC50 was 1000 to 10000 nM.

Take `O=S(=O)(c1ccc(Cl)cc1)N1CCC(Br)CC1` [Compound 56, 4-Bromo-1-(4-chloro-benzenesulfonyl)-piperidine]: the IC50 was over 10000 nM.

Regarding `CC1CCC(C)N1S(=O)(=O)c1ccc(Cl)cc1` (stereo not shown) [Compound 124, 1-(4-Chloro-benzenesulfonyl)-2,5-dimethyl-pyrrolidine], the IC50 fell in the range of 1000 to 10000 nM.

In the case of `O=C(NCc1ccccc1)C1Cc2ccccc2N1S(=O)(=O)c1ccc(Cl)cc1` (stereo not shown) [Compound 12, 1-(4-Chloro-benzenesulfonyl)-2,3-dihydro-1H-indole-2-carboxylic acid benzylamide], the IC50 is 1000 to 10000 nM.

Consider `O=S(=O)(c1ccc(Cl)cc1)N1CCCC2CCCCC21` (stereo not shown) [Compound 9, 1-(4-Chloro-benzenesulfonyl)-decahydro-quinoline], for which the IC50 lay within 1000 to 10000 nM.

`CCOC(=O)C1CCCN(S(=O)(=O)c2ccc(Cl)cc2)C1` (stereo not shown) [Compound 65, 1-(4-Chloro-benzenesulfonyl)-piperidine-3-carboxylic acid ethyl ester]: the IC50 is over 10000 nM.

Consider `C[C@@H]1CCC[C@H](C)N1S(=O)(=O)c1ccc(Cl)cc1` [Compound 45, (2R,6S)-1-[(4-chlorophenyl)sulfonyl]-2,6-dimethylpiperidine], for which the IC50 was in the range of 100 to 1000 nM.

Regarding `O=S(=O)(c1ccc(Cl)cc1)N1CCCCCC1` [Compound 43, 1-(4-Chloro-benzenesulfonyl)-azepane], the IC50 is 1000 to 10000 nM.

For `CC1C=CC(C)N1S(=O)(=O)c1ccc(Cl)cc1` (stereo not shown) [Compound 149, 1-(4-Chloro-benzenesulfonyl)-2,5-dimethyl-2,5-dihydro-1H-pyrrole], the IC50 is 1000 to 10000 nM.

`O=C(Nc1ccccc1)C1Cc2ccccc2N1S(=O)(=O)c1ccc(Cl)cc1` (stereo not shown) [Compound 2, 1-(4-Chloro-benzenesulfonyl)-2,3-dihydro-1H-indole-2-carboxylic acid phenylamide]: the IC50 fell in the range of 1000 to 10000 nM.

`CCCCNC(=O)[C@H]1CSC(c2ccc(OC)c(OC)c2)N1S(=O)(=O)c1ccc(Cl)cc1` (stereo partly drawn) [Compound 139, (4S)-N-butyl-3-[(4-chlorophenyl)sulfonyl]-2-(3,4-dimethoxyphenyl)-1,3-thiazolidine-4-carboxamide]: the IC50 is over 10000 nM.

For `CC1CCCC(C)N1S(=O)(=O)c1ccc(Cl)cc1` (stereo not shown) [Compound 47, 1-(4-Chloro-benzenesulfonyl)-2,6-dimethyl-piperidine], the IC50 lay within 100 to 1000 nM.

On to `CC1CCCN(S(=O)(=O)c2ccc(Cl)cc2)C1` (stereo not shown) [Compound 54, 1-(4-Chloro-benzenesulfonyl)-3-methyl-piperidine], for which the IC50 was in the range of 1000 to 10000 nM.

Take `CC1CCCCN1S(=O)(=O)c1ccc(Cl)cc1` (stereo not shown) [Compound 48, 1-(4-Chloro-benzenesulfonyl)-2-methyl-piperidine]: the IC50 is 1000 to 10000 nM.

For the compound `O=S(=O)(c1ccc(Cl)cc1)N1CCCCC1c1cccnc1` (stereo not shown) [Compound 1, 1-(4-Chloro-benzenesulfonyl)-1,2,3,4,5,6-hexahydro-[2,3′]bipyridinyl], the IC50 was 1000 to 10000 nM.
